Laboratory results reported in PubChem BioAssay (NCI).
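The compound was tested at five concentrations on cells cultured in 96-well plates, with a 48-hour exposure period. TGI marks complete inhibition of growth.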

How the values were obtained:
Test in all cases: NCI-60 cell line screen, 48 h
786-0 renal = system: 786-0 renal
A498 renal = system: A498 renal
A549 NSCLC = system: A549 NSCLC
ACHN renal = system: ACHN renal
CCRF-CEM leukemia = system: CCRF-CEM leukemia
COLO 205 colon = system: COLO 205 colon
DLD-1 colon = system: DLD-1 colon
DMS 114 small cell lung = system: DMS 114 small cell lung
EKVX NSCLC = system: EKVX NSCLC
HCC-2998 colon = system: HCC-2998 colon
HCT-116 colon = system: HCT-116 colon
HL-60(TB) leukemia = system: HL-60(TB) leukemia
HOP-18 NSCLC = system: HOP-18 NSCLC
HOP-62 NSCLC = system: HOP-62 NSCLC
HOP-92 NSCLC = system: HOP-92 NSCLC
HT29 colon = system: HT29 colon
IGROV1 ovarian = system: IGROV1 ovarian
KM12 colon = system: KM12 colon
KM20L2 colon = system: KM20L2 colon
LOX IMVI melanoma = system: LOX IMVI melanoma
LXFL 529 NSCLC = system: LXFL 529 NSCLC
M14 melanoma = system: M14 melanoma
M19-MEL melanoma = system: M19-MEL melanoma
MALME-3M melanoma = system: MALME-3M melanoma
MOLT-4 leukemia = system: MOLT-4 leukemia
NCI-H226 lung = system: NCI-H226 lung
NCI-H23 lung = system: NCI-H23 lung
NCI-H460 lung = system: NCI-H460 lung
OVCAR-3 ovarian = system: OVCAR-3 ovarian
OVCAR-4 ovarian = system: OVCAR-4 ovarian
OVCAR-5 ovarian = system: OVCAR-5 ovarian
OVCAR-8 ovarian = system: OVCAR-8 ovarian
RPMI-8226 leukemia = system: RPMI-8226 leukemia
RXF 393 renal = system: RXF 393 renal
RXF-631 renal = system: RXF-631 renal
SF-268 CNS = system: SF-268 CNS
SF-295 CNS = system: SF-295 CNS
SK-MEL-2 melanoma = system: SK-MEL-2 melanoma
SK-MEL-28 melanoma = system: SK-MEL-28 melanoma
SK-MEL-5 melanoma = system: SK-MEL-5 melanoma
SN12C renal = system: SN12C renal
SNB-19 CNS = system: SNB-19 CNS
SNB-75 CNS = system: SNB-75 CNS
SNB-78 CNS = system: SNB-78 CNS
SW-620 colon = system: SW-620 colon
TK-10 renal = system: TK-10 renal
U251 CNS = system: U251 CNS
UACC-257 melanoma = system: UACC-257 melanoma
UACC-62 melanoma = system: UACC-62 melanoma
UO-31 renal = system: UO-31 renal
XF 498 CNS = system: XF 498 CNS
CAKI-1 renal = system: CAKI-1 renal
K-562 leukemia = system: K-562 leukemia
NCI-H522 lung = system: NCI-H522 lung
SF-539 CNS = system: SF-539 CNS
SK-OV-3 ovarian = system: SK-OV-3 ovarian
SR leukemia = system: SR leukemia

NC(=O)/C(=N\NC(=O)c1cc2ccccc2cc1O)C1C(=O)N(c2ccccc2)N=C1N (stereo not drawn)
TGI (786-0 renal): > 100 µM
TGI (A498 renal): 37.5 µM
TGI (A549 NSCLC): > 100 µM
TGI (ACHN renal): > 100 µM
TGI (CCRF-CEM leukemia): 87.6 µM
TGI (COLO 205 colon): > 100 µM
TGI (DLD-1 colon): > 100 µM
TGI (DMS 114 small cell lung): 53.2 µM
TGI (EKVX NSCLC): > 100 µM
TGI (HCC-2998 colon): > 100 µM
TGI (HCT-116 colon): > 100 µM
TGI (HL-60(TB) leukemia): 47.2 µM
TGI (HOP-18 NSCLC): > 100 µM
TGI (HOP-62 NSCLC): > 100 µM
TGI (HOP-92 NSCLC): 94.6 µM
TGI (HT29 colon): > 100 µM
TGI (IGROV1 ovarian): > 100 µM
TGI (KM12 colon): > 100 µM
TGI (KM20L2 colon): > 100 µM
TGI (LOX IMVI melanoma): > 100 µM
TGI (LXFL 529 NSCLC): > 100 µM
TGI (M14 melanoma): > 100 µM
TGI (M19-MEL melanoma): > 100 µM
TGI (MALME-3M melanoma): > 100 µM
TGI (MOLT-4 leukemia): 94.5 µM
TGI (NCI-H226 lung): > 100 µM
TGI (NCI-H23 lung): 56.5 µM
TGI (NCI-H460 lung): > 100 µM
TGI (OVCAR-3 ovarian): > 100 µM
TGI (OVCAR-4 ovarian): > 100 µM
TGI (OVCAR-5 ovarian): 54 µM
TGI (OVCAR-8 ovarian): > 100 µM
TGI (RPMI-8226 leukemia): > 100 µM
TGI (RXF 393 renal): > 100 µM
TGI (RXF-631 renal): > 100 µM
TGI (SF-268 CNS): > 100 µM
TGI (SF-295 CNS): > 100 µM
TGI (SK-MEL-2 melanoma): 83 µM
TGI (SK-MEL-28 melanoma): > 100 µM
TGI (SK-MEL-5 melanoma): 37.2 µM
TGI (SN12C renal): > 100 µM
TGI (SNB-19 CNS): > 100 µM
TGI (SNB-75 CNS): > 100 µM
TGI (SNB-78 CNS): > 100 µM
TGI (SW-620 colon): > 100 µM
TGI (TK-10 renal): > 100 µM
TGI (U251 CNS): > 100 µM
TGI (UACC-257 melanoma): 65 µM
TGI (UACC-62 melanoma): 35.9 µM
TGI (UO-31 renal): > 100 µM
TGI (XF 498 CNS): > 100 µM

CC(=O)/C(=C\c1ccccc1)C(=O)Nc1ccccc1
TGI (786-0 renal): > 100 µM
TGI (A549 NSCLC): > 100 µM
TGI (ACHN renal): > 100 µM
TGI (CAKI-1 renal): > 100 µM
TGI (CCRF-CEM leukemia): > 100 µM
TGI (DLD-1 colon): > 100 µM
TGI (DMS 114 small cell lung): > 100 µM
TGI (EKVX NSCLC): > 100 µM
TGI (HCC-2998 colon): > 100 µM
TGI (HCT-116 colon): > 100 µM
TGI (HL-60(TB) leukemia): > 100 µM
TGI (HOP-18 NSCLC): > 100 µM
TGI (HOP-62 NSCLC): > 100 µM
TGI (HOP-92 NSCLC): > 100 µM
TGI (HT29 colon): > 100 µM
TGI (IGROV1 ovarian): > 100 µM
TGI (K-562 leukemia): > 100 µM
TGI (KM12 colon): > 100 µM
TGI (LOX IMVI melanoma): > 100 µM
TGI (LXFL 529 NSCLC): > 100 µM
TGI (M14 melanoma): > 100 µM
TGI (M19-MEL melanoma): > 100 µM
TGI (MALME-3M melanoma): > 100 µM
TGI (MOLT-4 leukemia): > 100 µM
TGI (NCI-H226 lung): > 100 µM
TGI (NCI-H23 lung): > 100 µM
TGI (NCI-H460 lung): > 100 µM
TGI (NCI-H522 lung): > 100 µM
TGI (OVCAR-3 ovarian): > 100 µM
TGI (OVCAR-4 ovarian): > 100 µM
TGI (OVCAR-5 ovarian): > 100 µM
TGI (OVCAR-8 ovarian): > 100 µM
TGI (RPMI-8226 leukemia): > 100 µM
TGI (RXF 393 renal): > 100 µM
TGI (RXF-631 renal): > 100 µM
TGI (SF-268 CNS): > 100 µM
TGI (SF-295 CNS): > 100 µM
TGI (SF-539 CNS): > 100 µM
TGI (SK-MEL-2 melanoma): > 100 µM
TGI (SK-MEL-5 melanoma): > 100 µM
TGI (SK-OV-3 ovarian): > 100 µM
TGI (SN12C renal): > 100 µM
TGI (SNB-19 CNS): > 100 µM
TGI (SNB-78 CNS): > 100 µM
TGI (SR leukemia): > 100 µM
TGI (SW-620 colon): > 100 µM
TGI (TK-10 renal): > 100 µM
TGI (U251 CNS): > 100 µM
TGI (UACC-257 melanoma): > 100 µM
TGI (UACC-62 melanoma): > 100 µM
TGI (UO-31 renal): > 100 µM
TGI (XF 498 CNS): > 100 µM
